molecular target: T1, CFTR in F508del/MF-HBE cells (Homo sapiens, UniProt P13569, DEL508-508); test: Ussing chamber assay of CFTR-mediated short-circuit currents (identification of potentiator compounds); type: cell-based; conditions: potentiator incubated 18-24 hours at 37° C. in combination with 10 μM corrector, in the presence of 20% human serum, CFTR-mediated ISC
T1 construct: human bronchial epithelial (HBE) cells derived from CF subjects heterozygous for F508del and a minimal function CFTR mutation; endogenous in cells; host or cells: primary human bronchial epithelial cells from CF subjects (F508del/MF-HBE)
T1 sequence (P13569 with tags, fused parts or gaps DEL508-508): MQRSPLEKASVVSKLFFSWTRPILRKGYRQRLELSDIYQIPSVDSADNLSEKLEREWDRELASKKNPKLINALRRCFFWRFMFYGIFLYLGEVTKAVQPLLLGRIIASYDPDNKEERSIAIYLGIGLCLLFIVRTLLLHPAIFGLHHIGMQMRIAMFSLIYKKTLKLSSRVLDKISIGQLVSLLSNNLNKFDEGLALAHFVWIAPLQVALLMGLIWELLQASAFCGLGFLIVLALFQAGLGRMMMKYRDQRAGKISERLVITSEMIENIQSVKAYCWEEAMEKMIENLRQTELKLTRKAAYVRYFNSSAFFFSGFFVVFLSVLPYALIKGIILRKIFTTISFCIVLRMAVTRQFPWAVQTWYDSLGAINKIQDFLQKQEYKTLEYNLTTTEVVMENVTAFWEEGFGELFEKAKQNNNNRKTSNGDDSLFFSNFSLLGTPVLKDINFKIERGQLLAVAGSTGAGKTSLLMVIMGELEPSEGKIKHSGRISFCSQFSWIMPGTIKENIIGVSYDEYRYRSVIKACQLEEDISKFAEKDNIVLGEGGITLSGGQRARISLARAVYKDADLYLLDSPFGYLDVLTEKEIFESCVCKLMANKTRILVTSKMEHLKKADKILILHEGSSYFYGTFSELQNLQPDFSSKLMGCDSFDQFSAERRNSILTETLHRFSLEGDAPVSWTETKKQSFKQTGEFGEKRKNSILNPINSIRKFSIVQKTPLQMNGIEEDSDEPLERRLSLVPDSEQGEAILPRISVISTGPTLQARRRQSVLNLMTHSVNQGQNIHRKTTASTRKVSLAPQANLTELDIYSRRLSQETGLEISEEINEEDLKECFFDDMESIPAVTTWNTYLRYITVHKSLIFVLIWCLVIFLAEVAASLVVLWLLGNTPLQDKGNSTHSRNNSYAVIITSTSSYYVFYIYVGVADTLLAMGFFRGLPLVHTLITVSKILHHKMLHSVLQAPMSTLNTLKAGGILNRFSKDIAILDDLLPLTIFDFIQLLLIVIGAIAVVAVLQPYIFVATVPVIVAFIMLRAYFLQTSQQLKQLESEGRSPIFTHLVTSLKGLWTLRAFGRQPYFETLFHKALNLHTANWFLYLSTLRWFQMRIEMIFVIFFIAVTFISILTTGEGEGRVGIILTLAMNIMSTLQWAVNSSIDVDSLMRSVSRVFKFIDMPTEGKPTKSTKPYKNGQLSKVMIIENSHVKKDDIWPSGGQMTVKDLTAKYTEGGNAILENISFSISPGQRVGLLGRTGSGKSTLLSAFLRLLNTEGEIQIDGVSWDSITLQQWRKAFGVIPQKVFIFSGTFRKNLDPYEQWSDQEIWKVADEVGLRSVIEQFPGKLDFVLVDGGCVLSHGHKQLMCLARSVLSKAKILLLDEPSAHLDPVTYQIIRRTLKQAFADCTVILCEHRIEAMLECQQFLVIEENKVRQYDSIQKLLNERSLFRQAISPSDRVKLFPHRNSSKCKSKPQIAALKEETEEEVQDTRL
Outline: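 F508del/MF-HBE cultures were preincubated 18-24 h at 37° C with potentiator plus 10 μM of a fixed corrector compound in 20% human serum; compounds were kept present during measurement. ISC was recorded under voltage clamp (0 mV, 37° C, amiloride apical) and taken as the 20 μM forskolin peak minus the current after inhibitor cocktail.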

Row | Compound | EC50
1 | Nc1cc(C(F)(F)F)c2nc1-c1nnc(o1)[C@@](O)(C(F)(F)F)CCCCCN(Cc1cc(Cl)cc(OC(F)(F)F)c1)C2=O [Compound 178, (6R)-17-amino-12-[[3-chloro-5-(trifluoromethoxy)phenyl]methyl]-6-hydroxy-6,15-bis (trifluoromethyl)-19-oxa-3,4,12,18-tetrazatricyclo [12.3.1.12,5] nonadeca-1(18),2,4,14,1 6-pentaen-13-one] | < 500 nM
2 | CC1(N2CCCCC[C@](O)(C(F)(F)F)C3=NN=C(O3)c3nc(c(C(F)(F)F)cc3N)C2=O)CCCCC1 [Compound 219, (6R)-17-amino-6-hydroxy-12-(1-methylcyclohexyl)-6,15-bis(trifluoromethyl)-19-oxa-3,4,12,18-tetrazatricyclo [12.3.1.12,5] nonadeca-1(18),2,4,14,16-pentaen-13-one] | < 500 nM
3 | Nc1cc(C(F)(F)F)c2nc1-c1nnc(o1)[C@@](O)(C(F)(F)F)CCCCCN(Cc1cccc(OCC(F)(F)F)c1)C2=O [Compound 186, (6R)-17-amino-6-hydroxy-12-[[3-(2,2,2-trifluoroethoxy)phenyl]methyl]-6,15-bis (trifluoromethyl)-19-oxa-3,4,12,18-tetrazatricyclo [12.3.1.12,5] nonadeca-1(18),2,4,14,1 6-pentaen-13-one] | < 500 nM
4 | Nc1cc(C(F)(F)F)c2nc1-c1nnc(o1)[C@@](O)(C(F)(F)F)CCCCCN(c1cccnc1)C2=O [Compound 126, (6R)-17-amino-6-hydroxy-12-(3-pyridyl)-6,15-bis (trifluoromethyl)-19-oxa-3,4,12,18-tetrazatricyclo [12.3.1.12,5] nonadeca-1(18),2,4,14,1 6-pentaen-13-one] | > 1000 nM
5 | CC(C)(O)c1cccc(CN2CCCCC[C@](O)(C(F)(F)F)C3=NN=C(O3)c3nc(c(C(F)(F)F)cc3N)C2=O)c1 [Compound 244, (6R)-17-amino-6-hydroxy-12-[[3-(1-hydroxy-1-methyl-ethyl)phenyl]methyl]-6,15-bis(trifluoromethyl)-19-oxa-3,4,12,18-tetrazatricyclo [12.3.1.12,5] nonadeca-1(18),2,4,14,16-pentaen-13-one] | < 500 nM
6 | Nc1cc(C(F)(F)F)c2nc1-c1nnc(o1)[C@@](O)(C(F)(F)F)CCCCCN(CC1CC1)C2=O [Compound 83, (6R)-17-Amino-12-(cyclopropylmethyl)-6-hydroxy-6,15-bis(trifluoromethyl)-19-oxa-3,4,12,18-tetrazatricyclo [12.3.1.12,5] nonadeca-1(18),2,4,14,1 6-pentaen-13-one] | < 500 nM
7 | Nc1cc(C(F)(F)F)c2nc1-c1nnc(o1)[C@@](O)(C(F)(F)F)CCCCCN([C@H]1CC[C@H](C(F)(F)F)CC1)C2=O [Compound 209, (6R)-17-amino-6-hydroxy-12-[(1r,4r)-4-(trifluoromethyl)cyclohexyl]-6,15-bis(trifluoromethyl)-19-oxa-3,4,12,18-tetraazatricyclo [12.3.1.12,5] nonadeca-1(18),2,4,14,16-pentaen-13-one] | < 500 nM
8 | COC12CCC(N3CCCCC[C@](O)(C(F)(F)F)c4nnc(o4)-c4nc(c(C(F)(F)F)cc4N)C3=O)(CC1)C2 [Compound 211, (6R)-17-amino-6-hydroxy-12-(4-methoxynorbornan-1-yl)-6,15-bis(trifluoromethyl)-19-oxa-3,4,12,18-tetrazatricyclo [12.3.1.12,5] nonadeca-1(18),2,4,14,16-pentaen-13-one] | < 500 nM
9 | Cc1cccnc1CN1CCCCC[C@](O)(C(F)(F)F)C2=NN=C(O2)c2nc(c(C(F)(F)F)cc2N)C1=O [Compound 140, (6R)-17-amino-6-hydroxy-12-[(3-methyl-2-pyridyl)methyl]-6,15-bis (trifluoromethyl)-19-oxa-3,4,12,18-tetrazatricyclo [12.3.1.12,5] nonadeca-1(18),2,4,14,1 6-pentaen-13-one] | < 500 nM
